Assay results published in patent publication US10227331B2 (priority 2015, dated 2019).

Experiments:
[1] = target: IMP-1 (Serratia marcescens, UniProt P52699); test: biochemical; type: biochemical; details: CCF2-FA substrate, 2 hours at 25° C; read-out: IMP-1 IC50
In short: (§1)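 Fluorescence assay, CCF2-FA substrate (cephalosporin core linking 7-hydroxycoumarin to fluorescein); inhibitor + MBL + substrate, 2 h, 25° C. IC50 by 4-parameter fit, semi-log plot.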

[2] = target: NDM-1 (Klebsiella pneumoniae, UniProt C7C422); test: biochemical; type: biochemical; details: CCF2-FA substrate, 2 hours at 25° C; read-out: NDM-1 IC50
In short: as §1

[3] = tested on: P. aeruginosa expressing IMP-1, efflux− (MB9799); test: Efflux: concentration of MBL inhibitor which restores susceptibility to imipenem; type: cell-based, Pseudomonas aeruginosa; details: imipenem at 2 μg/mL, in the presence of a class A, C, D serine β-lactamase inhibitor closely related to relebactam
Source text: (§2) The strain background is Pseudomonas aeruginosa PAO1.

[4] = tested on: Klebsiella pneumoniae expressing VIM-1 (IHMA599644); type: cell-based; details: with imipenem 1 μg/ml, 95% inhibition of bacterial growth; for Klebsiella pneumoniae MITC95: VIM-1 (IHMA599644)
In short: (§3)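 Colonies from overnight 35 °C blood-agar cultures were suspended in saline, diluted 1:100 into 1.1× CAMHB and exposed to test compound with or without imipenem at 1 μg/ml. After 22–24 h at 35 °C, absorbance was read to find the concentration restoring imipenem susceptibility.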

[5] = tested on: Escherichia coli expressing NDM-1 (CLB30005, CLB30016); type: cell-based; details: with imipenem 1 μg/ml, 95% inhibition of bacterial growth; for Escherichia coli MITC95: NDM-1 (CLB30016)
In short: as §3

[6] = tested on: Serratia marcescens expressing IMP-1 (CL5741); type: cell-based; details: with imipenem 1 μg/ml, 95% inhibition of bacterial growth; for Serratia marcescens MITC95: IMP-1 (CL5741)
In short: as §3

[7] = tested on: P. aeruginosa expressing IMP-1, efflux+ (MB9798); type: cell-based, Pseudomonas aeruginosa; details: for P. aeruginosa expressing IMP-1, efflux+ (MB9798) MITC95: imipenem at 2 μg/mL, in the presence of a class A, C, D serine β-lactamase inhibitor closely related to relebactam; for Efflux ratio: ratio MITC95 PA_9798/MITC95 PA_9799
Source text: as §2

[8] = target: VIM-1 (Pseudomonas aeruginosa (strain ATCC 15692 / DSM 22644 / CIP 104116 / JCM 14847 / LMG 12228 / 1C / PRS 101 / PAO1), UniProt A0A0F7KYQ8); test: biochemical; details: CCF2-FA substrate, 2 hours at 25° C
In short: as §1

Chain of NDM-1 (C7C422 whole entry, looked up, species assumed): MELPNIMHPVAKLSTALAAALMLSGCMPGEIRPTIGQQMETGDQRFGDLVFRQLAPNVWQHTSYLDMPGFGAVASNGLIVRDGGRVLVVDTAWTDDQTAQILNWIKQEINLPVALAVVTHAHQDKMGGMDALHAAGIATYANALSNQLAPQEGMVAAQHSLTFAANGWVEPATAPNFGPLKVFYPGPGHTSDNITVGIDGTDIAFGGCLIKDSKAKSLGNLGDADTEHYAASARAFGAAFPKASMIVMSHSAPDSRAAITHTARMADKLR
Chain of IMP-1 (P52699 whole entry, looked up, species assumed): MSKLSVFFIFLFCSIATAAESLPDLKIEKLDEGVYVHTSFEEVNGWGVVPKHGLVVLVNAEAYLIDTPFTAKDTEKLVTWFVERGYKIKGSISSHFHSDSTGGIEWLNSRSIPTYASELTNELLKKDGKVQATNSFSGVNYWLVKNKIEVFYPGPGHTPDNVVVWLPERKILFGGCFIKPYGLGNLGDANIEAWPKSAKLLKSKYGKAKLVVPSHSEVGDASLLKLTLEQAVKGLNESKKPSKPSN

Structure (SMILES): Nc1ncc(-c2ccc(S(=O)(=O)C3CNC3)c(S(N)(=O)=O)c2-c2nn[nH]n2)c2cccnc12 [Example 248, 3-(8-Amino-1,7-naphthyridin-5-yl)-6-(azetidin-3-ylsulfonyl)-2-(2H-tetrazol-5-yl)benzenesulfonamide]
- IC50 [1]: 2.09 nM
- IC50 [2]: 0.566 nM
- P. aeruginosa expressing IMP-1, efflux− (MB9799) MITC95 [3]: 1.563 µM
- Klebsiella pneumoniae MITC95 [4]: 3.125 µM
- Escherichia coli MITC95 [5]: 3.125 µM
- Serratia marcescens MITC95 [6]: 1.563 µM
- P. aeruginosa expressing IMP-1, efflux+ (MB9798) MITC95 [7]: 6.25 µM
- Efflux ratio [7]: 4.00
- IC50 [8]: 0.556 nM

Structure (SMILES): Cc1cc(-c2ccc(S(=O)(=O)C3CNC3)c(S(N)(=O)=O)c2-c2nnn[nH]2)cnc1C#N.O=C(O)C(F)(F)F [Example 99, 3-((4-(6-cyano-5-methylpyridin-3-yl)-2-sulfamoyl-3-(1H-tetrazol-5-yl)phenyl)sulfonyl)azetidin-1-ium 2,2,2-trifluoroacetate]
- IC50 [1]: 13.7 nM
- IC50 [2]: 3.94 nM
- P. aeruginosa expressing IMP-1, efflux− (MB9799) MITC95 [3]: 1.563 µM
- Klebsiella pneumoniae expressing VIM-1 (IHMA599644) MITC95 [4]: 6.25 µM
- Escherichia coli expressing NDM-1 (CLB30016) MITC95 [5]: 6.25 µM
- Serratia marcescens expressing IMP-1 (CL5741) MITC95 [6]: 12.5 µM
- P. aeruginosa expressing IMP-1, efflux+ (MB9798) MITC95 [7]: 200 µM
- Efflux ratio [7]: 127.96
- IC50 [8]: 0.535 nM

Structure (SMILES): CS(=O)(=O)c1ccc(-c2cccc3sc(N)nc23)c(-c2nn[nH]n2)c1S(N)(=O)=O [Example 239, 3-(2-aminobenzo[d]thiazol-4-yl)-6-(methylsulfonyl)-2-(2H-tetrazol-5-yl) benzenesulfonamide]
- IC50 [1]: 0.0909 nM
- IC50 [2]: 0.129 nM
- P. aeruginosa expressing IMP-1, efflux− (MB9799) MITC95 [3]: 1.563 µM
- Klebsiella pneumoniae expressing VIM-1 (IHMA599644) MITC95 [4]: 6.25 µM
- Escherichia coli expressing NDM-1 (CLB30016) MITC95 [5]: 12.5 µM
- Serratia marcescens expressing IMP-1 (CL5741) MITC95 [6]: 3.125 µM
- P. aeruginosa expressing IMP-1, efflux+ (MB9798) MITC95 [7]: 1.563 µM
- Efflux ratio [7]: 1.00
- IC50 [8]: 0.108 nM

Structure (SMILES): Nc1cc(-c2cc(-c3ccc(S(=O)(=O)C4CNC4)c(S(N)(=O)=O)c3-c3nnn[nH]3)ccn2)ccn1 [Example 311, 3-(2′-amino-[2,4′-bipyridin]-4-yl)-6-(azetidin-3-ylsulfonyl)-2-(1H-tetrazol-5-yl)benzenesulfonamide]
- IC50 [1]: 2.32 nM
- IC50 [2]: 0.921 nM
- P. aeruginosa expressing IMP-1, efflux− (MB9799) MITC95 [3]: 1.563 µM
- Klebsiella pneumoniae MITC95 [4]: 3.125 µM
- Escherichia coli MITC95 [5]: 3.125 µM
- Serratia marcescens MITC95 [6]: 1.563 µM
- P. aeruginosa expressing IMP-1, efflux+ (MB9798) MITC95 [7]: 50 µM
- Efflux ratio [7]: 31.99
- IC50 [8]: 0.315 nM

Structure (SMILES): Nc1nccc(-c2ccc(S(=O)(=O)C3CNC3)c(S(N)(=O)=O)c2-c2nn[nH]n2)c1N [Example 224, 6-(azetidin-3-ylsulfonyl)-3-(2,3-diaminopyridin-4-yl)-2-(2H-tetrazol-5-yl)benzenesulfonamide]
- IC50 [1]: 2.58 nM
- IC50 [2]: 0.618 nM
- P. aeruginosa expressing IMP-1, efflux− (MB9799) MITC95 [3]: 1.563 µM
- Klebsiella pneumoniae expressing VIM-1 (IHMA599644) MITC95 [4]: 3.125 µM
- Escherichia coli expressing NDM-1 (CLB30016) MITC95 [5]: 0.7813 µM
- Serratia marcescens expressing IMP-1 (CL5741) MITC95 [6]: 3.125 µM
- P. aeruginosa expressing IMP-1, efflux+ (MB9798) MITC95 [7]: 3.125 µM
- Efflux ratio [7]: 2.00
- IC50 [8]: 1.29 nM

Structure (SMILES): C[C@H](CN)S(=O)(=O)c1ccc(-c2cccc3sc(N)nc23)c(-c2nn[nH]n2)c1S(N)(=O)=O [Example 285, 3-(2-aminobenzo[d]thiazol-4-yl)-6-((R)-1-aminopropan-2-ylsulfonyl)-2-(2H-tetrazol-5-yl)benzenesulfonamide]
- IC50 [1]: 0.534 nM
- IC50 [2]: 0.37 nM
- P. aeruginosa expressing IMP-1, efflux− (MB9799) MITC95 [3]: 0.7813 µM
- Klebsiella pneumoniae MITC95 [4]: 1.563 µM
- Escherichia coli MITC95 [5]: 3.125 µM
- Serratia marcescens MITC95 [6]: 1.563 µM
- P. aeruginosa expressing IMP-1, efflux+ (MB9798) MITC95 [7]: 3.125 µM
- Efflux ratio [7]: 4.00
- IC50 [8]: 0.364 nM

Structure (SMILES): NCCS(=O)(=O)c1ccc(-c2cccc3sc(C(N)=O)nc23)c(-c2nn[nH]n2)c1S(N)(=O)=O [Example 89, 4-(4-(2-aminoethylsulfonyl)-3-sulfamoyl-2-(2H-tetrazol-5-yl)phenyl)benzo[d]thiazole-2-carboxamide]
- IC50 [1]: 0.601 nM
- IC50 [2]: 0.277 nM
- P. aeruginosa expressing IMP-1, efflux− (MB9799) MITC95 [3]: 1.563 µM
- Klebsiella pneumoniae expressing VIM-1 (IHMA599644) MITC95 [4]: 3.125 µM
- Escherichia coli expressing NDM-1 (CLB30016) MITC95 [5]: 1.563 µM
- Serratia marcescens expressing IMP-1 (CL5741) MITC95 [6]: 1.563 µM
- P. aeruginosa expressing IMP-1, efflux+ (MB9798) MITC95 [7]: 3.125 µM
- Efflux ratio [7]: 2.00
- IC50 [8]: 0.152 nM

Structure (SMILES): NC(=O)CN1CC(S(=O)(=O)c2ccc(-c3cccc4[nH]c(N)nc34)c(-c3nn[nH]n3)c2S(N)(=O)=O)C1 [Example 50, 2-(3-(4-(2-amino-1H-benzo[d]imidazol-4-yl)-2-sulfamoyl-3-(2H-tetrazol-5-yl)phenylsulfonyl)azetidin-1-yl)acetamide]
- IC50 [1]: 1.44 nM
- IC50 [2]: 0.242 nM
- P. aeruginosa expressing IMP-1, efflux− (MB9799) MITC95 [3]: 3.125 µM
- Klebsiella pneumoniae expressing VIM-1 (IHMA599644) MITC95 [4]: 6.25 µM
- Escherichia coli expressing NDM-1 (CLB30016) MITC95 [5]: 3.125 µM
- Serratia marcescens expressing IMP-1 (CL5741) MITC95 [6]: 3.125 µM
- P. aeruginosa expressing IMP-1, efflux+ (MB9798) MITC95 [7]: 3.125 µM
- Efflux ratio [7]: 1.00
- IC50 [8]: 0.585 nM

Structure (SMILES): NCCS(=O)(=O)c1ccc(-c2cncc3ccccc23)c(-c2nnn[nH]2)c1S(N)(=O)=O.O=C(O)C(F)(F)F [Example 148, 2-((4-(isoquinolin-4-yl)-2-sulfamoyl-3-(1H-tetrazol-5-yl)phenyl)sulfonyl)ethanaminium 2,2,2-trifluoroacetate]
- IC50 [1]: 0.983 nM
- IC50 [2]: 0.608 nM
- P. aeruginosa expressing IMP-1, efflux− (MB9799) MITC95 [3]: 1.563 µM
- Klebsiella pneumoniae expressing VIM-1 (IHMA599644) MITC95 [4]: 3.125 µM
- Escherichia coli expressing NDM-1 (CLB30016) MITC95 [5]: 3.125 µM
- Serratia marcescens expressing IMP-1 (CL5741) MITC95 [6]: 3.125 µM
- P. aeruginosa expressing IMP-1, efflux+ (MB9798) MITC95 [7]: 3.125 µM
- Efflux ratio [7]: 2.00
- IC50 [8]: 0.434 nM

Structure (SMILES): NCCS(=O)(=O)c1ccc(-c2ccc3[nH]nc(C(F)(F)F)c3c2)c(-c2nnn[nH]2)c1S(N)(=O)=O.O=C(O)C(F)(F)F [Example 163, 2-((2-sulfamoyl-3-(1H-tetrazol-5-yl)-4-(3-(trifluoromethyl)-1H-indazol-5-yl)phenyl)sulfonyl)ethanaminium 2,2,2-trifluoroacetate]
- IC50 [1]: 1.22 nM
- IC50 [2]: 0.98 nM
- P. aeruginosa expressing IMP-1, efflux− (MB9799) MITC95 [3]: 0.7813 µM
- Klebsiella pneumoniae expressing VIM-1 (IHMA599644) MITC95 [4]: 3.125 µM
- Escherichia coli expressing NDM-1 (CLB30016) MITC95 [5]: 1.563 µM
- Serratia marcescens expressing IMP-1 (CL5741) MITC95 [6]: 3.125 µM
- P. aeruginosa expressing IMP-1, efflux+ (MB9798) MITC95 [7]: 100 µM
- Efflux ratio [7]: 127.99
- IC50 [8]: 0.12 nM

Structure (SMILES): NCCS(=O)(=O)c1ccc(-c2ccc(N)nc2)c(-c2nn[nH]n2)c1S(N)(=O)=O [Example 321, 6-((2-aminoethyl)sulfonyl)-3-(6-aminopyridin-3-yl)-2-(2H-tetrazol-5-yl) benzenesulfonamide]
- IC50 [1]: 0.949 nM
- IC50 [2]: 1.36 nM
- P. aeruginosa expressing IMP-1, efflux− (MB9799) MITC95 [3]: 0.6406 µM
- Klebsiella pneumoniae MITC95 [4]: 1.281 µM
- Escherichia coli MITC95 [5]: 0.125 µM
- Serratia marcescens MITC95 [6]: 0.4453 µM
- P. aeruginosa expressing IMP-1, efflux+ (MB9798) MITC95 [7]: 1.781 µM
- Efflux ratio [7]: 2.78
- IC50 [8]: 1.01 nM

Structure (SMILES): NC[C@H](CO)S(=O)(=O)c1ccc(-c2cccc3nc(N)[nH]c23)c(-c2nn[nH]n2)c1S(N)(=O)=O [Example 351, (R)-3-(2-amino-1H-benzo[d]imidazol-7-yl)-6-((1-amino-3-hydroxypropan-2-yl)sulfonyl)-2-(1H-tetrazol-5-yl)benzenesulfonamide]
- IC50 [1]: 1.36 nM
- IC50 [2]: 0.2 nM
- P. aeruginosa expressing IMP-1, efflux− (MB9799) MITC95 [3]: 0.7813 µM
- Klebsiella pneumoniae MITC95 [4]: 1.563 µM
- Escherichia coli MITC95 [5]: 0.7813 µM
- Serratia marcescens MITC95 [6]: 0.7813 µM
- P. aeruginosa expressing IMP-1, efflux+ (MB9798) MITC95 [7]: 0.7813 µM
- Efflux ratio [7]: 1.00
- IC50 [8]: 0.711 nM

Structure (SMILES): Nc1nc2c(-c3ccc(S(=O)(=O)C4CNC4)c(S(N)(=O)=O)c3-c3nn[nH]n3)cccc2c(=O)[nH]1 [Example 37, 3-(2-amino-4-oxo-3,4-dihydroquinazolin-8-yl)-6-(azetidin-3-ylsulfonyl)-2-(2H-tetrazol-5-yl)benzenesulfonamide]
- IC50 [1]: 1.9 nM
- IC50 [2]: 0.081 nM
- P. aeruginosa expressing IMP-1, efflux− (MB9799) MITC95 [3]: 1.563 µM
- Klebsiella pneumoniae expressing VIM-1 (IHMA599644) MITC95 [4]: 6.25 µM
- Escherichia coli expressing NDM-1 (CLB30016) MITC95 [5]: 25 µM
- Serratia marcescens expressing IMP-1 (CL5741) MITC95 [6]: 3.125 µM
- P. aeruginosa expressing IMP-1, efflux+ (MB9798) MITC95 [7]: 3.125 µM
- Efflux ratio [7]: 2.00
- IC50 [8]: 0.348 nM
